Measured values from patent US20230000869A1, “NOVEL ALK2 INHIBITORS AND METHODS FOR INHIBITING BMP SIGNALING” (The Brigham and Women's Hospital, Inc., priority 2017, published 2023).

How the values were obtained:
Format in all cases: biochemical
ALK1 = target: T1, ALK1 (Homo sapiens, UniProt P37023); test: TR-FRET enzymatic assay, ALK1 kinase, 1536-well; settings: for IC50 / ALK1 Span: TR-FRET; for IC50: 10 nM ALK, Ulight topo II substrate 50 nM, ATP 10 uM (Table 1); for ALK1 Span: span of the concentration-response curve
T1 construct: purchased Life technology (Fredrick, Md.) and/or CARNA BIOSCIENCES Inc. (Kobe, Japan)
T1 sequence (P37023 22-503): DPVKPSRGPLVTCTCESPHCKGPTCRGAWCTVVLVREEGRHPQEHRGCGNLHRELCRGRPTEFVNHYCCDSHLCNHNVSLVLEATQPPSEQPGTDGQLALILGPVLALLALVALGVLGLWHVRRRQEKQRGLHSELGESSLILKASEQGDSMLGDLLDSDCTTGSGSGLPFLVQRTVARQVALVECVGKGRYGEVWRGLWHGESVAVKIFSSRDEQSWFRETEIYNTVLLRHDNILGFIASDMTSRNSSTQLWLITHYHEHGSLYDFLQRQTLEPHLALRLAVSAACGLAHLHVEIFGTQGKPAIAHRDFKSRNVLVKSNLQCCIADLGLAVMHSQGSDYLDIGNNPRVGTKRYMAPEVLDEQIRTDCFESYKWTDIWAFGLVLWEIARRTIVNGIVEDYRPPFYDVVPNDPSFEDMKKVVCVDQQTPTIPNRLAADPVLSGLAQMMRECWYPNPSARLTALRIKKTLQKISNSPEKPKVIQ
Description: (§1) We have developed six ALK kinase enzyme assays for determination of compound activities on ALK1, ALK2, ALK3, ALK4, ALK5 and ALK6. For the assay development, we had tested a number of substrates and assay conditions that led to the final optimized assay protocols with good assay windows with signal to basal (S/B) ratios above 20 fold for all six ALK assays (FIG. 1). In our knowledge, these ALK kinase assays have not been reported elsewhere.
(§2) ALK1 and ALK2-ALK6 were obtained from Life technology (Fredrick, Md.) and CARNA BIOSCIENCES Inc. (Kobe, Japan). Ulight-DNA Topoisomerase 2 alpha (Thr-1342) peptide and Europium anti-phospho-DNA Topoisomerase 2 alpha (Thr-1342) antibody was from Perkin Elmer Inc. The kinase buffer was composed of 50 mM HEPES pH7.0, 10 mM MgCl2, 3 mM MnCl2, 0.005% Tween-20 and 2 mM DTT. The compound plates and the white solid MB assay plates were purchased from Greiner Bio-one (Monroe, N.C.).
(§3) The binding of Eu-anti-phospho-peptide antibody to the phosphorylated Ulight peptide substrate bring both Eu donor and Ulight acceptor dye into close proximity. Upon excitation at 320-340 nm, the emission energy from Eu donor is transferred to Ulight acceptor dye that will generate light at 665 nm. The intensity light emission is proportional to the level of the peptide phosphorylation by ALKs. The assay was optimized and performed in 1536 plate (Table 1). Briefly, the ALKs enzymatic assay was initiated by dispense 2.5 ul enzyme with a final concentration at 10 nM prepared in 1× kinase reaction buffer. The assay plate was then added with compounds with the Pintool station (23 nl/well compound dilutions in DMSO solution) that was followed by incubation at room temperature for 10 minutes. Then 2.5 ul/well substrate was added in which 50 nM peptide substrate mixed with 10 uM, 100 uM or 1 mM ATP (final concentration). The assay plate was incubated at room temperature for 60 minutes and the kinase reaction was stopped by addition of 5 ul/well of 4 nM Eu-anti-phospho-peptide antibody with 12 mM EDTA prepared in 1× detection buffer. The assay plate was measured in an EnVision plate reader (Perkin Elmer) in the TR-FRET detection mode (excitation at 340 nm and emission at 665 nm).

ALK6 = target: T2, ALK6 (Homo sapiens, UniProt O00238); test: TR-FRET enzymatic assay, ALK6 kinase, 1536-well; settings: for IC50: 10 nM ALK, Ulight topo II substrate 50 nM, ATP 10 uM (Table 1); for ALK6 Span: span of the concentration-response curve
T2 construct: purchased Life technology (Fredrick, Md.) and/or CARNA BIOSCIENCES Inc. (Kobe, Japan)
T2 sequence (O00238 14-502): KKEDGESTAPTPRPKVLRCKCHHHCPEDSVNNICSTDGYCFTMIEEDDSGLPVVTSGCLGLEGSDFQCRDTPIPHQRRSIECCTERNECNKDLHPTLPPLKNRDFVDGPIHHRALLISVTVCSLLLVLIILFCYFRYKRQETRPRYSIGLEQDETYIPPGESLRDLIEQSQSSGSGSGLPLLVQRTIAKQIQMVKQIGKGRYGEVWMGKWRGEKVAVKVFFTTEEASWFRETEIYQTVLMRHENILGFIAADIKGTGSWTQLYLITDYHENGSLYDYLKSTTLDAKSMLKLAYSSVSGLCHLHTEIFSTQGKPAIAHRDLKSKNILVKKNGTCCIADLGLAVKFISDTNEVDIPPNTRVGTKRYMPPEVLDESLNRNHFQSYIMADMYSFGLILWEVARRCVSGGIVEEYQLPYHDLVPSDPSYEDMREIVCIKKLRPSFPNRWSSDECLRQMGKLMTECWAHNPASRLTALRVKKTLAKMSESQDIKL
Description: as §1, §2, §3

ALK4 = target: T3, ALK4 (Homo sapiens, UniProt P36896); test: TR-FRET enzymatic assay, ALK4 kinase, 1536-well; settings: for IC50: 10 nM ALK, Ulight topo II substrate 50 nM, ATP 10 uM (Table 1); for ALK4 Span: span of the concentration-response curve
T3 construct: purchased Life technology (Fredrick, Md.) and/or CARNA BIOSCIENCES Inc. (Kobe, Japan)
T3 sequence (P36896 24-505): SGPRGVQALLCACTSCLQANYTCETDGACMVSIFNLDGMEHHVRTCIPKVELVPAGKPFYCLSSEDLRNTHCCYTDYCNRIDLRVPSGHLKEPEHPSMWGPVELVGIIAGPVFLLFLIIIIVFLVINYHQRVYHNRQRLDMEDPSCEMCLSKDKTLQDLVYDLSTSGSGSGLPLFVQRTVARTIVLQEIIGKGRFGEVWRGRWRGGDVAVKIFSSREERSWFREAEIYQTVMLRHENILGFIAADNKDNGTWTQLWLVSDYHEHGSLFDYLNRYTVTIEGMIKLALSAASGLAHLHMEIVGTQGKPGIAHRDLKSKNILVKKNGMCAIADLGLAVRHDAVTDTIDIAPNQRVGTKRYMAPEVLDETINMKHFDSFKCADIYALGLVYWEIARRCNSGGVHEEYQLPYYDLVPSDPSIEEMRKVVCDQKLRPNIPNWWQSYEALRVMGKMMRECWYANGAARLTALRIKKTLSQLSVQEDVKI
Description: as §1, §2, §3

ALK5 = target: T4, ALK5 (Homo sapiens, UniProt P36897); test: TR-FRET enzymatic assay, ALK5 kinase, 1536-well; settings: for IC50: 10 nM ALK, Ulight topo II substrate 50 nM, ATP 10 uM (Table 1); for ALK5 Span: span of the concentration-response curve
T4 construct: purchased Life technology (Fredrick, Md.) and/or CARNA BIOSCIENCES Inc. (Kobe, Japan)
T4 sequence (P36897 34-503): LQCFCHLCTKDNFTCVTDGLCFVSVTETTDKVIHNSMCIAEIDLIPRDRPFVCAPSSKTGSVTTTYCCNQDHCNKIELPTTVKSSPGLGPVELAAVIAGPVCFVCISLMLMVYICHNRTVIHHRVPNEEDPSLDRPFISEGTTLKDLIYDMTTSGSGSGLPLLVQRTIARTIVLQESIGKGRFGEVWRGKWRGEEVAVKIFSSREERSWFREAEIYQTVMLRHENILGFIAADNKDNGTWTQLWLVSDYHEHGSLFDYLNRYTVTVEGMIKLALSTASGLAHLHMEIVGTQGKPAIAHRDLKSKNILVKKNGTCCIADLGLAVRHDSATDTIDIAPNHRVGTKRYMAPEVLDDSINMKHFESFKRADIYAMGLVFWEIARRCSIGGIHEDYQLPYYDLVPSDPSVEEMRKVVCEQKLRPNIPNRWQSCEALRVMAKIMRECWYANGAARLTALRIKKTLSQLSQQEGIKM
Description: as §1, §2, §3

ALK3 = target: T5, ALK3 (Homo sapiens, UniProt P36894); test: TR-FRET enzymatic assay, ALK3 kinase, 1536-well; settings: for IC50: 10 nM ALK, Ulight topo II substrate 50 nM, ATP 10 uM (Table 1); for ALK3 Span: span of the concentration-response curve
T5 construct: purchased Life technology (Fredrick, Md.) and/or CARNA BIOSCIENCES Inc. (Kobe, Japan)
T5 sequence (P36894 24-532): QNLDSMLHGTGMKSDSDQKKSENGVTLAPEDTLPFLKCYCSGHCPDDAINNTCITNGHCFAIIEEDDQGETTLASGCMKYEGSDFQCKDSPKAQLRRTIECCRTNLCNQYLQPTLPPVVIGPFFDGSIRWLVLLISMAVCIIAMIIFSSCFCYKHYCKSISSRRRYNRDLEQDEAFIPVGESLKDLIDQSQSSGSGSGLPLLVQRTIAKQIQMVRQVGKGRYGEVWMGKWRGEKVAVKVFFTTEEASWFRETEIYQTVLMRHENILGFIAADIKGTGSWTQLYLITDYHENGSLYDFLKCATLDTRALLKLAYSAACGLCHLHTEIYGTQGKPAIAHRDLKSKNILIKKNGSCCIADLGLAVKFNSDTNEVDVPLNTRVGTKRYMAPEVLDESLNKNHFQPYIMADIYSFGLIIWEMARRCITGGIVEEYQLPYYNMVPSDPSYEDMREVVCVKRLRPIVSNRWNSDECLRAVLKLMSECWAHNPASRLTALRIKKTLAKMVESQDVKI
Description: as §1, §2, §3

Row | SMILES | IC50 (ALK1) | ALK1 Span (ALK1) | IC50 (ALK6) | ALK6 Span (ALK6) | IC50 (ALK4) | ALK4 Span (ALK4) | IC50 (ALK5) | ALK5 Span (ALK5) | IC50 (ALK3) | ALK3 Span (ALK3) | activity in ALK1 in the presence of 10, 100, or 1,000 uM ATP (ALK1; FIG. 3, ATP 10 uM versus 100 uM or 1 mM)
1 | Cc1cc(-c2cnn3cc(N4CCC(N5CCN(C)CC5)CC4)cnc23)c2ccccc2n1 [Compound 8] | 325 nM | 89.1 | 2400 nM | 86.5 | 994 nM | 96.6 | 2470 nM | 100.3 | 1240 nM | 97.0 | –
2 | Cc1cc(-c2cnn3cc(N4CCC(N5CCOCC5)CC4)cnc23)c2ccccc2n1 [Compound 11] | 269 nM | 91.4 | 2980 nM | 89.9 | 1030 nM | 100.0 | 2080 nM | 102.1 | 1280 nM | ~115.7 | –
3 | COc1cc2c(-c3cnn4cc(N5CCC(N6CCN(C)CC6)CC5)cnc34)ccnc2cc1F [Compound 15, 7-fluoro-6-methoxy-4-(6-(4-(4-methylpiperazin-1-yl)piperidin-1-yl)pyrazolo[1,5-a]pyrimidin-3-yl)quinoline] | 1520 nM | 92.3 | 10300 nM | 80.81 | 4210 nM | 101 | 8920 nM | 96 | 2820 nM | 96.93 | –
4 | Cc1cc(-c2cnn3cc(N4CCC(N5CCNCC5)CC4)cnc23)c2ccccc2n1 [Compound 34] | 671 nM | 93.42 | 4060 nM | 91.28 | 2030 nM | 101.1 | 4680 nM | 105.678 | 1870 nM | 104.4 | –
5 | c1ccc2c(-c3cnn4cc(-c5ccc(N6CCNCC6)cc5)cnc34)ccnc2c1 [TRND00262637-13] | – | – | – | – | – | – | – | – | – | – | activity reduced in the higher ATP concentrations
